# Experimental data taken from ChEMBL document CHEMBL4184156, “Repurposing Hsp90 inhibitors as antibiotics targeting histidine kinases” (Bioorg Med Chem Lett, 2017).
# pIC50: −log10 of the molar value.
# Key:
# Staphylococcus aureus = assay: Antimicrobial activity against Staphylococcus aureus 20231 after 24 hrs by double dilution method; type: functional; details: Staphylococcus aureus, 20231, 24 h
# [1] = molecular target: T1, Phosphate regulon sensor protein phoR (Staphylococcus aureus subsp. aureus CN1, UniProt T1Y9P4); assay: Inhibition of Staphylococcus aureus DHp-catalytic domain PhoR autophosphorylation expressed in Escherichia coli RIL in presence of gamma-32P-ATP by SDS-PAGE analysis
# T1 sequence (T1Y9P4 whole entry): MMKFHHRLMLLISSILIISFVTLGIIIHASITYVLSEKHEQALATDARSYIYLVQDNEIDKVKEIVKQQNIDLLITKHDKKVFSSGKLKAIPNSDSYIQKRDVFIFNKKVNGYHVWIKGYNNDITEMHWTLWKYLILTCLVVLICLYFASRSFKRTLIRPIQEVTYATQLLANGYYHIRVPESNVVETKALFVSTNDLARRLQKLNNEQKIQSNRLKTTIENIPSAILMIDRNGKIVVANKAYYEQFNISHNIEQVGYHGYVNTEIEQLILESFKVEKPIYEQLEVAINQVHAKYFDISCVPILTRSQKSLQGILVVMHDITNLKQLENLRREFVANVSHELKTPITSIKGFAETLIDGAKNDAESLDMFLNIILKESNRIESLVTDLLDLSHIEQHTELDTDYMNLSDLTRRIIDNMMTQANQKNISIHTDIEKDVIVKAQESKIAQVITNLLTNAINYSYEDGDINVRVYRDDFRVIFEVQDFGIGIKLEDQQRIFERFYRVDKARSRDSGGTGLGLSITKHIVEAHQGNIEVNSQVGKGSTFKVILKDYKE
# [2] = molecular target: T2, Phosphate regulon sensor protein PhoR (Escherichia coli (strain K12), UniProt P08400); assay: Inhibition of Escherichia coli DHp-catalytic domain PhoR autophosphorylation expressed in Escherichia coli RIL in presence of gamma-32P-ATP by SDS-PAGE analysis
# T2 sequence (P08400 whole entry): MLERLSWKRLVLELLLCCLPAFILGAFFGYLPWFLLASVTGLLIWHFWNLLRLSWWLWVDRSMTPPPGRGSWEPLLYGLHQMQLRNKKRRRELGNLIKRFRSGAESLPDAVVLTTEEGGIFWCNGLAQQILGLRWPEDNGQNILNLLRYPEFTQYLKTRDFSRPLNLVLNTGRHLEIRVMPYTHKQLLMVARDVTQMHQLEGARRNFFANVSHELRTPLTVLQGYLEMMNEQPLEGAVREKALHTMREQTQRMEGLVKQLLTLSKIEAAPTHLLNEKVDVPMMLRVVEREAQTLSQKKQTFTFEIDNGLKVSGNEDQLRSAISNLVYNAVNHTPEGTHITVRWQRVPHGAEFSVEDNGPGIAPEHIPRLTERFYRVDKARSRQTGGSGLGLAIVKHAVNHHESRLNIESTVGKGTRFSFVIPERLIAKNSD
# Escherichia coli [3] = assay: Antimicrobial activity against Escherichia coli CFT073 after 24 hrs by double dilution method; type: functional; details: CFT073, 24 h
# [4] = Inhibition of Thermotoga maritima HK853 preincubated for 30 mins followed by B-ATPgammaS addition after 1 hr in dark by in-gel fluorescence analysis
# [5] = molecular target: T3, Sensor protein kinase WalK family protein (Streptococcus pneumoniae PCS8203, UniProt A0A0H2UQD0); assay: Inhibition of Streptococcus pneumoniae VicK preincubated for 30 mins followed by [gamma-33P]ATP addition after 30 mins by SDS-PAGE method
# T3 sequence (A0A0H2UQD0 whole entry): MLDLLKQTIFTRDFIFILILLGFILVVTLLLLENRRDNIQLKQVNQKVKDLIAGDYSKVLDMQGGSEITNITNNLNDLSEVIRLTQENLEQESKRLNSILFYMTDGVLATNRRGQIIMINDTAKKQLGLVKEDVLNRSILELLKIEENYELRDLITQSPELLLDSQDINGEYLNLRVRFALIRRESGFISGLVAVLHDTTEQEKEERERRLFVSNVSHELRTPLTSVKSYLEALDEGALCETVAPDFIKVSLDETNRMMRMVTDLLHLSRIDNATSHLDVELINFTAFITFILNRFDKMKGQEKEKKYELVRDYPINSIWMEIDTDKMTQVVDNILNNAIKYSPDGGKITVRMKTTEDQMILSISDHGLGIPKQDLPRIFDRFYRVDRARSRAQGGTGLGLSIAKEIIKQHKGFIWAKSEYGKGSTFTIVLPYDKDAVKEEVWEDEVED
# Chemotaxis protein CheA = molecular target: T4, Chemotaxis protein CheA (Escherichia coli (strain K12), UniProt P07363); assay: Inhibition of Escherichia coli CheA preincubated for 30 mins followed by [gamma-33P]ATP addition after 30 mins by SDS-PAGE method
# T4 sequence (P07363 whole entry): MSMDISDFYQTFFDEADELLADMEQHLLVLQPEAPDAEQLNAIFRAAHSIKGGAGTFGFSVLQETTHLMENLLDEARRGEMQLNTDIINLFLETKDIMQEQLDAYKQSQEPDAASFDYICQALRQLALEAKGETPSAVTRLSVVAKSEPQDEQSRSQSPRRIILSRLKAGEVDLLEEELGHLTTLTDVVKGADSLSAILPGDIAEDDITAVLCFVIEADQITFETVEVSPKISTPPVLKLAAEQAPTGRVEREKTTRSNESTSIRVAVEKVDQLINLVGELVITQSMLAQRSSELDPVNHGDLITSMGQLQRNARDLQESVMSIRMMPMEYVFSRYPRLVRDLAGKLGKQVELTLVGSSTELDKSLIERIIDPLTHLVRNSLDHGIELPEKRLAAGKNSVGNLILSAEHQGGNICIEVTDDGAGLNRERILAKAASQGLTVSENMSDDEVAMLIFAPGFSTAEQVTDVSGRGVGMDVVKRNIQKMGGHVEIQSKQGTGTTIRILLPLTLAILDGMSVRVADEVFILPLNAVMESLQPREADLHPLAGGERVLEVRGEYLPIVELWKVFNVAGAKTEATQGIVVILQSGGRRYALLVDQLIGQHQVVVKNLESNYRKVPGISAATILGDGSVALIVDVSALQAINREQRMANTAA
# Bacillus subtilis = assay: Antimicrobial activity against Bacillus subtilis 3610 after 20 hrs by Mueller-Hinton Broth microdilution method; type: functional; details: subsp. subtilis str. NCIB 3610, 20 h
# Escherichia coli [6] = assay: Antimicrobial activity against Escherichia coli DC2 after 20 hrs by Mueller-Hinton Broth microdilution method; type: functional; details: DC2, 20 h
# [7] = molecular target: T5, Sensor protein kinase WalK (Staphylococcus epidermidis (strain ATCC 35984 / RP62A), UniProt Q5HK19); assay: Inhibition of recombinant Staphylococcus epidermidis ATCC 35984 N-terminal GB1-tagged YycG expressed in Escherichia coli BL21 (DE3) preincubated for 30 mins followed by ATP addition after 30 mins by kinase-glo assay
# T5 sequence (Q5HK19 whole entry): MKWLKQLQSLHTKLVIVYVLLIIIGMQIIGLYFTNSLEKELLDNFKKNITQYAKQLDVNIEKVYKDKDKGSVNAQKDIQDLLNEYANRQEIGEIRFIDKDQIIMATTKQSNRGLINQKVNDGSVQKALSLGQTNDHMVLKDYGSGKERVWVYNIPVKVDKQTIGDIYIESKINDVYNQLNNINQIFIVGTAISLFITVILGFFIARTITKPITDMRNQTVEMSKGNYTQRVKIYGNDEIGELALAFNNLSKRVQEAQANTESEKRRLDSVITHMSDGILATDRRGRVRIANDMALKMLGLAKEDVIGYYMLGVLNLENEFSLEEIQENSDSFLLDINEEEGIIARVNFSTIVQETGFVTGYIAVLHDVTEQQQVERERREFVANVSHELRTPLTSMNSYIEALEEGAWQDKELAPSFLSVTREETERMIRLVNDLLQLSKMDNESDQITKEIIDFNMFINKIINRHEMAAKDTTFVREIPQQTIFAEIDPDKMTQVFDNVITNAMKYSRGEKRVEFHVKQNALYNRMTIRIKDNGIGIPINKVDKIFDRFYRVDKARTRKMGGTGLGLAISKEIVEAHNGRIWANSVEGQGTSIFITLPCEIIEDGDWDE
# [8] = system: Staphylococcus epidermidis; assay: Antimicrobial activity against Staphylococcus epidermidis ATCC 35984 after 10 hrs; type: functional; details: ATCC 35984, 10 h
compound,measurement,setting,value
CCC(c1ccc(O)cc1)C(CC)c1ccc(F)cc1 (stereo unspecified),MIC,Staphylococcus aureus,8 µg/mL
same,pIC50,[1],3.67
same,pIC50,[2],4.80
same,MIC,Escherichia coli [3],> 500 µg/mL
O=c1cc(-c2ccc(O)c(O)c2)oc2cc(O)cc(O)c12 [LUTEOLIN],pIC50,[4],4.82
same,pIC50,[5],3.67
same,pIC50,Chemotaxis protein CheA,3.95
same,MIC,Bacillus subtilis,> 128 µg/mL
same,MIC,Escherichia coli [6],8 µg/mL
O=C(O)c1cccc(-c2ccc(/C=c3\sc4n(c3=O)C(c3ccc(F)cc3)C=C(c3ccccc3)N=4)o2)c1 (stereo unspecified),pIC50,[7],4.62
same,MIC,[8],1.6 µg/mL
